Data published in patent US6737383B1, “Herbicidal oxadiazolidines” (priority 1999, dated 2004).

Assays:
rice = test: Test B flood test rice; type: in vivo, Oryza sativa; details: for Plant response rating, Rice (0 to 10 scale, 0 is no effect, 10 is complete control) / Rice plant response rating (0 to 10 scale, 0 is no effect, 10 is complete control): visual evaluation after twelve to sixteen days; for Rice plant response rating (0 to 10 scale, 0 is no effect, 10 is complete control): under heading Pre-emergence
Outline: (§1)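 Flood test on plants grown to the 2-leaf stage; treated plants kept in greenhouse twelve to sixteen days, then visually rated against controls on a 0 (no effect) to 10 (complete control) scale.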

giant foxtail = test: Test B pre/postemergence giant foxtail; type: in vivo, Setaria faberii
Outline: (§2)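 Test chemicals in a non-phytotoxic solvent mixture with surfactant were sprayed preemergence onto planted seeds and postemergence onto plants 2 to 18 cm tall (1- to 4-leaf stage). After twelve to sixteen days in a greenhouse, injury was visually rated against untreated controls from 0 (no effect) to 10 (complete control).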

morningglory = test: Test B pre/postemergence morningglory; type: in vivo, Ipomoea hederacea
Outline: as §2

duck salad = test: Test B flood test duck salad; type: in vivo, Heteranthera limosa; details: for Plant response rating, Ducksalad (0 to 10 scale, 0 is no effect, 10 is complete control) / Ducksalad plant response rating (0 to 10 scale, 0 is no effect, 10 is complete control): visual evaluation after twelve to sixteen days; for Ducksalad plant response rating (0 to 10 scale, 0 is no effect, 10 is complete control): under heading Pre-emergence
Outline: as §1

[1] = Postemergence (flood test species), Rate 125 g/ha, scale of 0 to 10 where 0 is no effect and 10 is complete control
[2] = Rate 62 g/ha, Postemergence section, flood test species, scale of 0 to 10 where 0 is no effect and 10 is complete control
[3] = Rate 250 g/ha, Postemergence (flood test), scale 0 to 10, 0 is no effect, 10 is complete control
[4] = Rate 250 g/ha, headed Pre-emergence (flood test species), scale 0 to 10 (0 no effect, 10 complete control)
[5] = Rate 500 g/ha, headed Pre-emergence (flood test species), scale 0 to 10 (0 no effect, 10 complete control)
[6] = Rate 500 g/ha, listed under Postemergence (flood test species), scale 0 to 10, 0 no effect, 10 complete control
[7] = Rate 1000 g/ha, Pre-emergence (as headed), scale 0 to 10
[8] = Rate 2000 g/ha, Pre-emergence (as headed), scale 0 to 10
[9] = Postemergence, Rate 125 g/ha, scale of 0 to 10 where 0 is no effect and 10 is complete control
[10] = Preemergence, Rate 62 g/ha, scale 0 to 10 (0 no effect, 10 complete control)
[11] = Preemergence, Rate 125 g/ha, 0 is no effect, 10 is complete control
[12] = Preemergence, Rate 250 g/ha, scale of 0 to 10 where 0 is no effect and 10 is complete control
[13] = Preemergence, Rate 500 g/ha, scale 0 to 10 (0 no effect, 10 complete control)
[14] = Rate 62 g/ha, Postemergence, scale of 0 to 10 where 0 is no effect and 10 is complete control
[15] = Rate 250 g/ha, Postemergence, scale 0 to 10, 0 is no effect, 10 is complete control
[16] = Rate 500 g/ha, Postemergence, scale 0 to 10, 0 no effect, 10 complete control
[17] = Rate 62 g/ha, flood test species, Pre-emergence
[18] = Rate 125 g/ha, flood test species
[19] = Rate 250 g/ha, Pre-emergence (flood test species), scale 0 to 10, 0 is no effect, 10 is complete control
[20] = Rate 500 g/ha, Pre-emergence, flood test species, scale 0 to 10 (0 no effect, 10 complete control)
[21] = Postemergence, Rate 250 g/ha, scale 0 to 10
[22] = Postemergence, Rate 500 g/ha, scale of 0 to 10 where 0 is no effect and 10 is complete control
[23] = Preemergence, Rate 62 g/ha, scale of 0 to 10 where 0 is no effect and 10 is complete control
[24] = Preemergence, Rate 125 g/ha, scale of 0 to 10 where 0 is no effect and 10 is complete control
[25] = Preemergence, Rate 250 g/ha, scale 0 to 10, 0 is no effect, 10 is complete control
[26] = Preemergence, Rate 500 g/ha, scale 0 to 10, 0 is no effect, 10 is complete control
[27] = Rate 62 g/ha, Postemergence, scale 0 to 10, 0 no effect, 10 complete control
[28] = Rate 125 g/ha, Postemergence, scale 0 to 10, 0 is no effect, 10 is complete control
[29] = Rate 500 g/ha, Pre-emergence section of Table B, 0 to 10 scale (0 no effect, 10 complete control)
[30] = Postemergence, Rate 62 g/ha, scale 0 to 10, 0 is no effect, 10 is complete control
[31] = Postemergence, Rate 250 g/ha, scale of 0 to 10, 0 is no effect, 10 is complete control
[32] = Preemergence, Rate 250 g/ha, scale 0 to 10 (0 no effect, 10 complete control)
[33] = Preemergence, Rate 500 g/ha, scale of 0 to 10 where 0 is no effect and 10 is complete control

Q: For `CC(C)N(C(=O)n1oc(=O)n(-c2cnn(C)c2Cl)c1=O)c1ccccc1` [Compound 122], which “Rice plant response rating” value (rice; [1]) is on record?
A: The value was 0.

Q: And the “Rice plant response rating” value (rice; [2])?
A: The value was 0.

Q: And the “Plant response rating, Rice” value (rice; [3])?
A: The value was 0.

Q: And the “Rice plant response rating” value (rice; [4])?
A: The value was 0.

Q: What about the “Plant response rating, Rice” value (rice; [5]) of the same compound?
A: Its value is 0.

Q: And the “Rice plant response rating” value (rice; [6])?
A: Its value is 0.

Q: And the “Rice plant response rating” value (rice; [7])?
A: Its value is 0.

Q: And the “Rice plant response rating” value (rice; [8])?
A: The value was 0.

Q: And the “Giant foxtail plant response rating” value (giant foxtail; [9])?
A: The value was 2.

Q: What about the “Giant foxtail plant response rating” value (giant foxtail; [10]) of the same compound?
A: Its value is 7.

Q: And the “Giant foxtail plant response rating (0 to 10 scale)” value (giant foxtail; [11])?
A: The value was 9.

Q: And the “Plant response rating, Giant foxtail” value (giant foxtail; [12])?
A: The value was 9.

Q: And the “Giant foxtail plant response rating” value (giant foxtail; [13])?
A: The value was 9.

Q: What about the “Giant foxtail plant response rating” value (giant foxtail; [14]) of the same compound?
A: Its value is 2.

Q: And the “Plant response rating, Giant foxtail” value (giant foxtail; [15])?
A: Its value is 6.

Q: And the “Giant foxtail plant response rating” value (giant foxtail; [16])?
A: Its value is 9.

Q: And the “Morningglory plant response rating” value (morningglory; [9])?
A: Its value is 3.

Q: What about the “Morningglory plant response rating” value (morningglory; [10]) of the same compound?
A: Its value is 0.

Q: And the “Morningglory plant response rating (0 to 10 scale)” value (morningglory; [11])?
A: Its value is 0.

Q: And the “Plant response rating, Morningglory” value (morningglory; [12])?
A: Its value is 0.

Q: And the “Morningglory plant response rating” value (morningglory; [13])?
A: The value was 0.

Q: And the “Morningglory plant response rating” value (morningglory; [14])?
A: Its value is 1.

Q: What about the “Plant response rating, Morningglory” value (morningglory; [15]) of the same compound?
A: Its value is 4.

Q: And the “Morningglory plant response rating” value (morningglory; [16])?
A: Its value is 4.

Q: And the “Ducksalad plant response rating” value (duck salad; [1])?
A: The value was 0.

Q: And the “Ducksalad plant response rating” value (duck salad; [2])?
A: The value was 0.

Q: And the “Plant response rating, Ducksalad” value (duck salad; [3])?
A: Its value is 0.

Q: And the “Ducksalad plant response rating” value (duck salad; [4])?
A: The value was 0.

Q: And the “Plant response rating, Ducksalad” value (duck salad; [5])?
A: Its value is 0.

Q: What about the “Ducksalad plant response rating” value (duck salad; [6]) of the same compound?
A: The value was 0.

Q: What about the “Ducksalad plant response rating” value (duck salad; [7]) of the same compound?
A: Its value is 0.

Q: What about the “Ducksalad plant response rating” value (duck salad; [8]) of the same compound?
A: The value was 0.

Q: With `CC(C)N(C(=O)n1oc(=O)n(C(C)CCl)c1=O)c1ccc(Cl)cc1` (stereo not shown) [Compound 456] as the compound, how does the “Plant response rating, Rice (0 to 10 scale, 0 is no effect, 10 is complete control)” value (rice; [17]) read?
A: The value was 0.

Q: And the “Rice plant response rating (0 to 10 scale, 0 is no effect, 10 is complete control)” value (rice; [18])?
A: The value was 0.

Q: And the “Rice plant response rating” value (rice; [19])?
A: Its value is 0.

Q: And the “Rice plant response rating” value (rice; [20])?
A: The value was 0.

Q: What about the “Giant foxtail plant response rating” value (giant foxtail; [21]) of the same compound?
A: Its value is 3.

Q: What about the “Giant foxtail plant response rating” value (giant foxtail; [22]) of the same compound?
A: Its value is 8.

Q: And the “Plant response rating, Giant foxtail” value (giant foxtail; [23])?
A: Its value is 5.

Q: What about the “Plant response rating, Giant foxtail” value (giant foxtail; [24]) of the same compound?
A: Its value is 10.

Q: What about the “Giant foxtail plant response rating” value (giant foxtail; [25]) of the same compound?
A: The value was 10.

Q: What about the “Giant foxtail plant response rating” value (giant foxtail; [26]) of the same compound?
A: The value was 10.

Q: What about the “Giant foxtail plant response rating” value (giant foxtail; [27]) of the same compound?
A: Its value is 2.

Q: And the “Giant foxtail plant response rating” value (giant foxtail; [28])?
A: The value was 2.

Q: And the “Morningglory plant response rating” value (morningglory; [21])?
A: Its value is 5.

Q: And the “Plant response rating, Morningglory” value (morningglory; [23])?
A: Its value is 0.

Q: And the “Plant response rating, Morningglory” value (morningglory; [24])?
A: The value was 0.

Q: And the “Morningglory plant response rating” value (morningglory; [25])?
A: The value was 3.

Q: What about the “Morningglory plant response rating” value (morningglory; [26]) of the same compound?
A: Its value is 3.

Q: What about the “Morningglory plant response rating” value (morningglory; [27]) of the same compound?
A: The value was 3.

Q: And the “Morningglory plant response rating” value (morningglory; [28])?
A: Its value is 3.

Q: And the “Plant response rating, Ducksalad (0 to 10 scale, 0 is no effect, 10 is complete control)” value (duck salad; [17])?
A: The value was 0.

Q: What about the “Ducksalad plant response rating (0 to 10 scale, 0 is no effect, 10 is complete control)” value (duck salad; [18]) of the same compound?
A: The value was 0.

Q: What about the “Ducksalad plant response rating” value (duck salad; [19]) of the same compound?
A: The value was 0.

Q: What about the “Ducksalad plant response rating” value (duck salad; [20]) of the same compound?
A: Its value is 0.

Q: `CC(C)N(C(=O)n1oc(=O)n(CC(=O)C2CCC2)c1=O)c1ccc(Cl)cc1` [Compound 643] was tested. Which “Plant response rating, Rice (0 to 10 scale, 0 is no effect, 10 is complete control)” value (rice; [17]) did it give?
A: Its value is 0.

Q: And the “Rice plant response rating (0 to 10 scale, 0 is no effect, 10 is complete control)” value (rice; [18])?
A: The value was 0.

Q: And the “Rice plant response rating” value (rice; [19])?
A: The value was 0.

Q: And the “Rice plant response rating” value (rice; [29])?
A: Its value is 0.

Q: What about the “Plant response rating, Giant foxtail” value (giant foxtail; [30]) of the same compound?
A: The value was 0.

Q: What about the “Giant foxtail plant response rating” value (giant foxtail; [9]) of the same compound?
A: The value was 0.

Q: And the “Giant foxtail plant response rating” value (giant foxtail; [31])?
A: The value was 0.

Q: What about the “Plant response rating, Giant foxtail” value (giant foxtail; [22]) of the same compound?
A: Its value is 0.

Q: What about the “Giant foxtail plant response rating” value (giant foxtail; [23]) of the same compound?
A: The value was 6.

Q: And the “Giant foxtail plant response rating” value (giant foxtail; [24])?
A: The value was 8.

Q: What about the “Plant response rating, Giant foxtail” value (giant foxtail; [32]) of the same compound?
A: Its value is 10.

Q: What about the “Plant response rating, Giant foxtail” value (giant foxtail; [33]) of the same compound?
A: The value was 10.

Q: What about the “Plant response rating, Morningglory” value (morningglory; [30]) of the same compound?
A: The value was 0.

Q: And the “Morningglory plant response rating” value (morningglory; [9])?
A: Its value is 4.

Q: And the “Morningglory plant response rating” value (morningglory; [31])?
A: The value was 4.

Q: And the “Plant response rating, Morningglory” value (morningglory; [22])?
A: Its value is 6.

Q: And the “Morningglory plant response rating” value (morningglory; [23])?
A: The value was 0.

Q: And the “Morningglory plant response rating” value (morningglory; [24])?
A: Its value is 0.

Q: What about the “Plant response rating, Morningglory” value (morningglory; [32]) of the same compound?
A: The value was 0.

Q: What about the “Plant response rating, Morningglory” value (morningglory; [33]) of the same compound?
A: Its value is 0.

Q: And the “Plant response rating, Ducksalad (0 to 10 scale, 0 is no effect, 10 is complete control)” value (duck salad; [17])?
A: The value was 0.

Q: What about the “Ducksalad plant response rating (0 to 10 scale, 0 is no effect, 10 is complete control)” value (duck salad; [18]) of the same compound?
A: Its value is 0.

Q: And the “Ducksalad plant response rating” value (duck salad; [19])?
A: The value was 0.

Q: What about the “Ducksalad plant response rating” value (duck salad; [29]) of the same compound?
A: Its value is 0.
